Key:
BALB/c mice [1] = test: LPS-induced sepsis model, lethality after high dose LPS; assay type: in vivo; conditions: LPS 70 mg/kg i.p.; peptide 75 μg s.c. at 2 and 6 hours after LPS
Protocol: FIG. 3 is a line graph illustrating decreased mortality in P13-treated mice after high dose LPS. BALB/c mice were injected i.p. with LPS (70 mg/kg) and 2 and 6 hrs later treated s.c. with P13 or control peptide (75 μg/mouse/injection). The mice (10 animals/group) were monitored every 3-4 hours for lethality, and the experiment was terminated after 96 hrs.
LPS-induced sepsis. Female BALB/c mice were injected i.p. with 70 mg/kg of LPS. At 2 and 6 hours after injection of LPS, mice were treated with scrambled control peptide or peptide P13. The peptides were administered subcutaneously at 75 μg/animal/injection time, with 10 mice/treatment group. The mice were monitored every 3-4 hours and the experiment was terminated after 96 hours.
As P13 inhibited production of inflammatory mediators in vivo, an LPS-induced murine sepsis model was used to determine the effect of peptide P13 on survival. Mice were injected with lethal dose of LPS (70 mg/kg) and treated 2 and 6 hours later with scrambled control peptide (75 μg) or a matching concentration of peptide P13. […] The experiment was terminated at 96 hours and P13 treated mice remained at 40% survival (FIG. 3). These studies confirm the in vivo activity of peptide P13 to reduce lethality in an LPS sepsis model even when peptide treatment is initiated after administration of LPS.

BALB/c mice [2] = test: LPS-induced serum TNF-α and soluble ICAM-1 in mice (ELISA); assay type: in vivo; conditions: serum 2 hours after LPS
Protocol: FIG. 2 is a set of bar graphs showing P13 inhibition of serum inflammatory mediators. BALB/c mice were injected intraperitoneally (i.p.) with 5 mg/kg LPS and 30 minutes later injected i.p. with P13 (15, 50, or 75 μg) or PBS. Two hours after LPS injection, serum was collected and TNF-α and soluble ICAM-1 were quantified by ELISA. Values represent means +/−S.D.
Serum cytokines and soluble ICAM-1. BALB/c female mice were injected intraperitoneally (i.p.) with 5 mg/kg of LPS and peptide P13 (15, 50, or 75 μg) or PBS was injected i.p. 30 minutes later. Two hours after injection of LPS, serum was collected and TNF-α and soluble ICAM-1 quantified by ELISA (R&D Systems).
To determine the effect of peptide treatment on the induction of serum inflammatory mediators, mice were injected with a sub-lethal high dose of LPS and 30 minutes later with P13 or phosphate buffered saline (PBS). Serum was collected 2 hours after treatment with LPS. TNF-α and soluble ICAM-1 were quantified by ELISA. […] The effect of delayed peptide P13 treatment at different doses of peptide on LPS-induced production of soluble ICAM-1 was examined.

HC-NPC co-cultures = test: Inflammatory mediators in LPS-stimulated HC-NPC co-cultures; assay type: cell-based; conditions: stimulated with LPS
TLR-dependent signaling = conditions: in vitro; cited from earlier work
[3] = system: animals treated with low dose LPS plus D-GaLN; test: Survival after low dose LPS plus D-GaLN; assay type: in vivo
[4] = system: murine bEND.3 endothelial cell line; test: LPS-induced MIP-2 and IL-6 production by endothelial cells (ELISA of supernatants); assay type: cell-based; conditions: 15 μg/well or 20 μg/well peptide, 15 min pre-treatment, LPS 12.5 ng/well, 4-hour supernatants
Protocol: FIG. 1 is a set of bar graphs showing P13 inhibition of macrophage inflammatory protein (MIP)-2 and interleukin (IL)-6. Murine endothelial cell line bEND.3 (2×10^5 cells/48-well plate) were pre-treated for 15 minutes with P13 or scrambled control peptide at matching peptide concentrations (15 or 20 μg/well) and then with LPS (12.5 ng/well). MIP-2 and IL-6 were quantified by ELISA from 4-hour cell-free supernatants. Cytokine values represent means +/−S.D. from quadruplicate wells/experimental condition.
Quantification of cytokines from cell supernatants. IL-6 and MIP-2 ELISA kits were used to assay cytokine levels in cell culture supernatants according to the protocols provided by the manufacturer (R&D Systems, Minneapolis, Minn.).
Because endothelial cells can be activated and even damaged in response to LPS exposure, the effect of treatment with peptide P13 on LPS-induced cytokine responses from the murine bEND.3 endothelial cell line was examined. Treatment of the bEND cells with LPS induced secretion of MIP-2 and IL-6.

Row | Substance | lethality at 36 hours (BALB/c mice [1]) [%] | lethality at 74 hours (BALB/c mice [1]) [%] | survival at 96 hours (BALB/c mice [1]) [%] | inhibition of serum TNF-α (BALB/c mice [2]; 50 μg i.p. 30 min after 5 mg/kg LPS i.p.) | inhibition of serum TNF-α (BALB/c mice [2]; 75 μg i.p. 30 min after 5 mg/kg LPS i.p.) | production of inflammatory mediators (HC-NPC co-cultures) | inhibition of TLR-dependent signaling (TLR-dependent signaling) | survival [3] | inhibition of IL-6 production [4] | inhibition of MIP-2 production [4]
1 | DIVKLTVYDCI-RRRRRRRRR (listed as Vaccinia virus) [P13, A52R amino acids 125 to 135 linked to nine arginines] | 60 | 60 | 40 | did not reduce | significant inhibition | reduced the production of inflammatory mediators | capable of in vitro inhibition | enhance survival | > 90% | > 90%
2 | ITCVDVDLIYK-RRRRRRRRR (ITCVDVDLIYKRRRRRRRRR; listed as Vaccinia virus) [scrambled control peptide, scrambled control of P13 with nine arginines, reference compound] | 90 | 100 |  |  |  |  |  |  | only modest inhibition | only modest inhibition

Source: patent US20120178667A1, “METHODS FOR TREATING SEPTIC SHOCK” (THE GOVERNMENT OF THE UNITED STATES OF AMERICA, dba THE …, priority 2006, published 2012)
